Experiments:
[1] = biological target: Neuronal acetylcholine receptor subunit alpha-7 (Homo sapiens, UniProt P36544); assay: Positive allosteric modulatory activity against alpha7 nAChR in human IMR-32 cells assessed as potentiation of PNU-282987-induced Ca2+ […] at 1 uM by FLIPR assay relative to control; format: cell-based
[2] = Drug metabolism in mouse liver microsomes assessed as metabolic rate at 1 uM preincubated for 5 mins followed by NADPH addition after 30 mins by LC-MS/MS analysis; format: ADME, Microsome; conditions: 0.5 h
[3] = Drug metabolism in rat liver microsomes assessed as metabolic rate at 1 uM preincubated for 5 mins followed by NADPH addition after 30 mins by LC-MS/MS analysis; format: ADME, Microsome; conditions: 0.5 h
[4] = Drug metabolism in dog liver microsomes assessed as metabolic rate at 1 uM preincubated for 5 mins followed by NADPH addition after 30 mins by LC-MS/MS analysis; format: ADME, Canis lupus familiaris, Microsome; conditions: 0.5 h
[5] = Drug metabolism in monkey liver microsomes assessed as metabolic rate at 1 uM preincubated for 5 mins followed by NADPH addition after 30 mins by LC-MS/MS analysis; format: ADME, Macaca mulatta, Microsome; conditions: rhesus monkey, 0.5 h
[6] = Drug metabolism in human pooled liver microsomes assessed as metabolic rate at 1 uM preincubated for 5 mins followed by NADPH addition after 30 mins by LC-MS/MS analysis; format: ADME, Microsome; conditions: 0.5 h
[7] = Metabolic stability in mouse liver microsomes assessed as compound remaining at 1 uM preincubated for 5 mins followed by NADPH addition and measured after 30 mins by LC-MS/MS analysis; format: ADME, Microsome; conditions: read-out: Stability
[8] = Metabolic stability in rat liver microsomes assessed as compound remaining at 1 uM preincubated for 5 mins followed by NADPH addition and measured after 30 mins by LC-MS/MS analysis; format: ADME, Microsome; conditions: read-out: Stability
[9] = Metabolic stability in dog liver microsomes assessed as compound remaining at 1 uM preincubated for 5 mins followed by NADPH addition and measured after 30 mins by LC-MS/MS analysis; format: ADME, Canis lupus familiaris, Microsome; conditions: read-out: Stability
[10] = Metabolic stability in monkey liver microsomes assessed as compound remaining at 1 uM preincubated for 5 mins followed by NADPH addition and measured after 30 mins by LC-MS/MS analysis; format: ADME, Macaca mulatta, Microsome; conditions: rhesus monkey, read-out: Stability
[11] = Metabolic stability in human pooled liver microsomes assessed as compound remaining at 1 uM preincubated for 5 mins followed by NADPH addition and measured after 30 mins by LC-MS/MS analysis; format: ADME, Microsome; conditions: read-out: Stability
[12] = Protein binding in rat plasma at 5 uM incubated for 16 hrs under shaking condition by LC/MS/MS based rapid equilibrium dialysis method; format: ADME, cell-free; conditions: read-out: PPB (converted)
[13] = Protein binding in human plasma at 5 uM incubated for 16 hrs under shaking condition by LC/MS/MS based rapid equilibrium dialysis method; format: ADME, cell-free; conditions: read-out: PPB (converted)
[14] = AUC (0 to 144 hrs) in Wistar rat at 1 mg/kg, iv after 0.083 to 144 hrs by LC-MS/MS analysis; format: ADME, organism-based; parameters: time < 144 hr, dose 1 mg/kg, route intravenous; conditions: in vivo
[15] = AUC (0 to 144 hrs) in Wistar rat at 10 mg/kg, po after 0.25 to 144 hrs by LC-MS/MS analysis; format: ADME, organism-based; parameters: dose 10 mg/kg, time < 144 hr, route oral; conditions: in vivo
[16] = AUClast in Beagle dog at 1 mg/kg, iv after 0.083 to 144 hrs by LC-MS/MS analysis; format: ADME, organism-based, Canis lupus familiaris; parameters: dose 1 mg/kg, time 0.083-144 hr, route intravenous; conditions: in vivo
[17] = AUClast in Beagle dog at 10 mg/kg, po after 0.25 to 144 hrs by LC-MS/MS analysis; format: ADME, organism-based, Canis lupus familiaris; parameters: time upper 144 hr, dose 10 mg/kg, time lower 0.25 hr, route oral; conditions: in vivo
[18] = Cmax in Wistar rat at 1 mg/kg, iv after 0.083 to 144 hrs by LC-MS/MS analysis; format: ADME, organism-based; parameters: dose 1 mg/kg, route intravenous; conditions: in vivo
[19] = Cmax in Wistar rat at 10 mg/kg, po after 0.25 to 144 hrs by LC-MS/MS analysis; format: ADME, organism-based; parameters: dose 10 mg/kg, route oral; conditions: in vivo
[20] = Cmax in Beagle dog at 1 mg/kg, iv after 0.083 to 144 hrs by LC-MS/MS analysis; format: ADME, organism-based, Canis lupus familiaris; parameters: dose 1 mg/kg, route intravenous; conditions: in vivo
[21] = Cmax in Beagle dog at 10 mg/kg, po after 0.25 to 144 hrs by LC-MS/MS analysis; format: ADME, organism-based, Canis lupus familiaris; parameters: dose 10 mg/kg, route oral; conditions: in vivo
[22] = Tmax in Wistar rat at 1 mg/kg, iv after 0.083 to 144 hrs by LC-MS/MS analysis; format: ADME, organism-based; conditions: in vivo
[23] = Tmax in Wistar rat at 10 mg/kg, po after 0.25 to 144 hrs by LC-MS/MS analysis; format: ADME, organism-based; conditions: in vivo
[24] = Tmax in Beagle dog at 1 mg/kg, iv after 0.083 to 144 hrs by LC-MS/MS analysis; format: ADME, organism-based, Canis lupus familiaris; conditions: in vivo
[25] = Tmax in Beagle dog at 10 mg/kg, po after 0.25 to 144 hrs by LC-MS/MS analysis; format: ADME, organism-based, Canis lupus familiaris; conditions: in vivo
[26] = Half life in Wistar rat at 1 mg/kg, iv after 0.083 to 144 hrs by LC-MS/MS analysis; format: ADME, organism-based; conditions: in vivo
[27] = Half life in Beagle dog at 1 mg/kg, iv after 0.083 to 144 hrs by LC-MS/MS analysis; format: ADME, organism-based, Canis lupus familiaris; conditions: in vivo
[28] = Clearance in Wistar rat at 1 mg/kg, iv after 0.083 to 144 hrs by LC-MS/MS analysis; format: ADME, organism-based; conditions: Wistar, in vivo
[29] = Clearance in Beagle dog at 1 mg/kg, iv after 0.083 to 144 hrs by LC-MS/MS analysis; format: ADME, organism-based, Canis lupus familiaris; conditions: Beagle, in vivo
[30] = Volume of distribution at steady state in Wistar rat at 1 mg/kg, iv after 0.083 to 144 hrs by LC-MS/MS analysis; format: ADME, organism-based; conditions: in vivo, read-out: Vdss
[31] = Volume of distribution at steady state in Beagle dog at 1 mg/kg, iv after 0.083 to 144 hrs by LC-MS/MS analysis; format: ADME, organism-based, Canis lupus familiaris; conditions: in vivo, read-out: Vdss
[32] = Oral bioavailability in Wistar rat at 10 mg/kg after 0.25 to 144 hrs by LC-MS/MS analysis; format: ADME, organism-based; conditions: in vivo
[33] = Oral bioavailability in Beagle dog at 10 mg/kg after 0.25 to 144 hrs by LC-MS/MS analysis; format: ADME, organism-based, Canis lupus familiaris; conditions: in vivo

Chain of Neuronal acetylcholine receptor subunit alpha-7 (P36544 whole entry): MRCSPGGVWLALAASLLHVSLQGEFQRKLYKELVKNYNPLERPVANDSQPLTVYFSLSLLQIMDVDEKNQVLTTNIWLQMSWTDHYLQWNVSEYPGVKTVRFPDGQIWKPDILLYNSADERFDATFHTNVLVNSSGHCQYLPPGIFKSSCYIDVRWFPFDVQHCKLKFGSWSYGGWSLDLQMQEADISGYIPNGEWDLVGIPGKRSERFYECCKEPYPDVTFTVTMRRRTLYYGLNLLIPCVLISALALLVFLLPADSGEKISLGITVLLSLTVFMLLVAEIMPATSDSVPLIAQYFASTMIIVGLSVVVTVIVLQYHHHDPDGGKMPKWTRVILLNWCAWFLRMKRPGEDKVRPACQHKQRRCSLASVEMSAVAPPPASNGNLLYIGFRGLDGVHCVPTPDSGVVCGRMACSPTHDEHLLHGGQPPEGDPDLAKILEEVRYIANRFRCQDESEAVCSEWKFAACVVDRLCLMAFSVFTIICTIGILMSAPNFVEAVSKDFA

## CCC(=O)c1sc(-c2ccc(Cl)cc2Cl)c(C)c1-c1ccc(S(N)(=O)=O)cc1
[1]
  fold change (FC): 12

## CCC(=O)c1sc(-c2ccc(N(C)C)cc2)c(C)c1-c1ccc(S(N)(=O)=O)cc1
[1]
  fold change (FC): 19

## CC(=O)c1sc(-c2ccc(Cl)cc2)c(C)c1-c1ccc(S(N)(=O)=O)cc1
[1]
  fold change (FC): 7

## Cc1c(-c2ccc(Cl)cc2)sc(C(=O)N2CCCCC2)c1-c1ccc(S(N)(=O)=O)cc1
[1]
  fold change (FC): 1

## CCCN(CCO)C(=O)c1sc(-c2ccc(Cl)cc2)c(C)c1-c1ccc(S(N)(=O)=O)cc1
[1]
  fold change (FC): 1

## CCC(=O)c1sc(-c2cccc(Cl)c2)c(C)c1-c1ccc(S(N)(=O)=O)cc1
[1]
  fold change (FC): 1

## CCOc1ccc(-c2sc(C(=O)CC)c(-c3ccc(S(N)(=O)=O)cc3)c2C)cc1
[1]
  fold change (FC): 6

## CCC(=O)c1sc(-c2ccc(C(F)(F)F)cc2)c(C)c1-c1ccc(S(N)(=O)=O)cc1
[1]
  fold change (FC): 15.3

## Cc1c(-c2ccc(Cl)cc2)sc(C(=O)N(C)C)c1-c1ccc(S(N)(=O)=O)cc1
[1]
  fold change (FC): 1

## CCC(=O)c1sc(-c2ccoc2)c(C)c1-c1ccc(S(N)(=O)=O)cc1
[1]
  fold change (FC): 1

## CCC(=O)c1sc(-c2ccc(F)cc2)c(C)c1-c1ccc(S(N)(=O)=O)cc1
[1]
  fold change (FC): 8.7

## CCC(=O)c1sc(-c2ccccc2Cl)c(C)c1-c1ccc(S(N)(=O)=O)cc1
[1]
  fold change (FC): 1

## CCC(=O)c1sc(-c2ccccc2)c(C)c1-c1ccc(S(N)(=O)=O)cc1
[1]
  fold change (FC): 2.4

## CCC(=O)c1sc(-c2ccc(OC)cc2)c(C)c1-c1ccc(S(N)(=O)=O)cc1
[1]
  fold change (FC): 22
[2]
  Drug metabolism: 0.03 nmol/min/mg
[3]
  Drug metabolism: 0.01 nmol/min/mg
[4]
  Drug metabolism: 0.02 nmol/min/mg
[5]
  Drug metabolism: 0.05 nmol/min/mg
[6]
  Drug metabolism: 0.03 nmol/min/mg
[7]
  remaining at 0.5 h, 1 µM: 78%
[8]
  remaining at 0.5 h, 1 µM: 97%
[9]
  remaining at 0.5 h, 1 µM: 84%
[10]
  remaining at 0.5 h, 1 µM: 67%
[11]
  remaining at 0.5 h, 1 µM: 81%
[12]
  fraction unbound at 16 h, 5 µM: 0.003
[13]
  fraction unbound at 16 h, 5 µM: 0.002
[14]
  AUC(0-t) at 144 h: 1.3 µM·h
[15]
  AUC(0-t) at 144 h: 8.2 µM·h
[16]
  AUC(0-t): 3.2 µM·h
[17]
  AUC(0-t): 1.3 µM·h
[18]
  Cmax: 900 nM
[19]
  Cmax: 3000 nM
[20]
  Cmax: 2300 nM
[21]
  Cmax: 400 nM
[22]
  Tmax: 4.8 min
[23]
  Tmax: 2 h
[24]
  Tmax: 0.25 h
[25]
  Tmax: 1.17 h
[26]
  half-life: 1.4 h
[27]
  half-life: 2 h
[28]
  clearance: 31 mL/min/kg
[29]
  clearance: 12 mL/min/kg
[30]
  Vd: 3 L/kg
[31]
  Vd: 2 L/kg
[32]
  bioavailability: 63%
[33]
  bioavailability: 4%

## CCC(=O)c1sc(-c2ccncc2)c(C)c1-c1ccc(S(N)(=O)=O)cc1
[1]
  fold change (FC): 1

## CCC(=O)c1sc(-c2ccc(C3CC3)cc2)c(C)c1-c1ccc(S(N)(=O)=O)cc1
[1]
  fold change (FC): 7

## CCC(=O)c1sc(-c2ccc(C(C)(C)C)cc2)c(C)c1-c1ccc(S(N)(=O)=O)cc1
[1]
  fold change (FC): 1

Source: ChEMBL document CHEMBL4354827, “Discovery of Novel, Potent, Brain-Permeable, and Orally Efficacious Positive Allosteric Modulator of α7 Nicotinic Acetylcholine Receptor [4-(5-(4-Chlorophenyl)-4-methyl-2-propionylthiophen-3-yl)benzenesulfonamide]: Structure-Activity Relationship and Preclinical Characterization” (J Med Chem, 2020)
